Experimental data as given in PubChem BioAssay AID2060493 (Molecular Pharmacology Branch, DTP, NCI, 2025).
Values belong to the molecule of their own block, whether it stands above or below them.

System: 616215-338-R-J1-PDC tumor spheroids, viability
Assay: Anticancer human tumor 616215-338-R-J1-PDC patient-derived colon adenocarcinoma cell line growth inhibition [GQUAD]
Conditions: spheroids with HUVEC and MSC; for IC50: curve of first compound; for viability, T/C: stronger effect = lower value
Method in brief: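 Tumor cells were grown as complex spheroids with HUVEC endothelial cells and mesenchymal stem cells as stroma. G-quadruplex stabilizers were combined with targeted agents over half-log dilutions from near the clinical Cmax, or from 10 microM.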

[1] = second compound 0.0316 µM, first compound 0.0316 µM
[2] = second compound 0.0316 µM, first compound 0.1 µM
[3] = second compound 0.0316 µM, first compound 0.316 µM
[4] = second compound 0.0316 µM, first compound 1 µM
[5] = second compound 0.0316 µM, first compound 3.16 µM
[6] = second compound 0.0316 µM, first compound 10 µM
[7] = second compound 0.1 µM, first compound 0.0316 µM
[8] = second compound 0.1 µM, first compound 0.1 µM
[9] = second compound 0.1 µM, first compound 0.316 µM
[10] = second compound 0.1 µM, first compound 1 µM
[11] = second compound 0.1 µM, first compound 3.16 µM
[12] = second compound 0.1 µM, first compound 10 µM
[13] = second compound 0.316 µM, first compound 0.0316 µM
[14] = second compound 0.316 µM, first compound 0.1 µM
[15] = second compound 0.316 µM, first compound 0.316 µM
[16] = second compound 0.316 µM, first compound 1 µM
[17] = second compound 0.316 µM, first compound 3.16 µM
[18] = second compound 0.316 µM, first compound 10 µM
[19] = second compound 1 µM, first compound 0.0316 µM
[20] = second compound 1 µM, first compound 0.1 µM
[21] = second compound 1 µM, first compound 0.316 µM
[22] = second compound 1 µM, first compound 1 µM
[23] = second compound 1 µM, first compound 3.16 µM
[24] = second compound 1 µM, first compound 10 µM
[25] = second compound 3.16 µM, first compound 0.0316 µM
[26] = second compound 3.16 µM, first compound 0.1 µM
[27] = second compound 3.16 µM, first compound 0.316 µM
[28] = second compound 3.16 µM, first compound 1 µM
[29] = second compound 3.16 µM, first compound 3.16 µM
[30] = second compound 3.16 µM, first compound 10 µM
[31] = second compound 10 µM, first compound 0.0316 µM
[32] = second compound 10 µM, first compound 0.1 µM
[33] = second compound 10 µM, first compound 0.316 µM
[34] = second compound 10 µM, first compound 1 µM
[35] = second compound 10 µM, first compound 3.16 µM
[36] = second compound 10 µM, first compound 10 µM
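Note: spheroids exposed to agents for 7 days before readout.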
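Throughout, for viability, T/C: percent viability relative to DMSO vehicle control wells taken as 100%.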

IC50 (second compound 0.0316 µM): 501 nM
IC50 (second compound 0.1 µM): 147 nM
IC50 (second compound 0.316 µM): < 31.6 nM
IC50 (second compound 1 µM): < 31.6 nM
IC50 (second compound 3.16 µM): < 31.6 nM
IC50 (second compound 10 µM): < 31.6 nM
Structure (SMILES): O=C(NO)c1cnc(N2CCN(S(=O)(=O)c3ccc4ccccc4c3)CC2)nc1 + Cc1cnc(CNC(=O)c2c(=O)c3ccc(N4CCCN(C)CC4)nc3n3c2sc2ccccc23)cn1
viability, T/C [1]: 101%
viability, T/C [2]: 96.1%
viability, T/C [3]: 79.9%
viability, T/C [4]: 5.15%
viability, T/C [5]: 0.03%
viability, T/C [6]: 0.07%
viability, T/C [7]: 54.1%
viability, T/C [8]: 66.6%
viability, T/C [9]: 29.4%
viability, T/C [10]: 0.37%
viability, T/C [11]: 0.03%
viability, T/C [12]: 0.07%
viability, T/C [13]: 37.2%
viability, T/C [14]: 41.2%
viability, T/C [15]: 28.5%
viability, T/C [16]: 0.06%
viability, T/C [17]: 0.02%
viability, T/C [18]: 0.06%
viability, T/C [19]: 24.7%
viability, T/C [20]: 24.8%
viability, T/C [21]: 35.1%
viability, T/C [22]: 0.04%
viability, T/C [23]: 0.03%
viability, T/C [24]: 0.08%
viability, T/C [25]: 21.9%
viability, T/C [26]: 34.8%
viability, T/C [27]: 0.18%
viability, T/C [28]: 0.07%
viability, T/C [29]: 0.07%
viability, T/C [30]: 0.09%
viability, T/C [31]: 12.2%
viability, T/C [32]: 16%
viability, T/C [33]: 0.15%
viability, T/C [34]: 0.14%
viability, T/C [35]: 0.16%
viability, T/C [36]: 0.17%

Structure (SMILES): CC1COCCN1c1cc(C2(O)CC3CCC(C2)O3)c2cnn(-c3ccn[nH]3)c2n1 (stereo not drawn) + CN(C)c1ccc(Nc2c3ccc(NC(=O)CCN4CCCC4)cc3nc3cc(NC(=O)CCN4CCCC4)ccc23)cc1
IC50 (second compound 0.0316 µM): 184 nM
IC50 (second compound 0.1 µM): 213 nM
IC50 (second compound 0.316 µM): 196 nM
IC50 (second compound 1 µM): 201 nM
IC50 (second compound 3.16 µM): 225 nM
IC50 (second compound 10 µM): 139 nM
viability, T/C [1]: 98.6%
viability, T/C [2]: 63.5%
viability, T/C [3]: 38.5%
viability, T/C [4]: 24%
viability, T/C [5]: 15.5%
viability, T/C [6]: 18.4%
viability, T/C [7]: 102%
viability, T/C [8]: 72.7%
viability, T/C [9]: 34.7%
viability, T/C [10]: 30.3%
viability, T/C [11]: 20.8%
viability, T/C [12]: 15.2%
viability, T/C [13]: 94.3%
viability, T/C [14]: 64.7%
viability, T/C [15]: 36.4%
viability, T/C [16]: 31.9%
viability, T/C [17]: 17.3%
viability, T/C [18]: 15.3%
viability, T/C [19]: 95.4%
viability, T/C [20]: 72.5%
viability, T/C [21]: 34.3%
viability, T/C [22]: 24.1%
viability, T/C [23]: 24.4%
viability, T/C [24]: 11.7%
viability, T/C [25]: 99.5%
viability, T/C [26]: 67.2%
viability, T/C [27]: 41.3%
viability, T/C [28]: 28.4%
viability, T/C [29]: 25.2%
viability, T/C [30]: 13.2%
viability, T/C [31]: 84.7%
viability, T/C [32]: 55.2%
viability, T/C [33]: 35.2%
viability, T/C [34]: 27.1%
viability, T/C [35]: 24.2%
viability, T/C [36]: 13.4%

IC50 (second compound 0.0316 µM): 481 nM
IC50 (second compound 0.1 µM): 456 nM
IC50 (second compound 0.316 µM): < 31.6 nM
IC50 (second compound 1 µM): < 31.6 nM
IC50 (second compound 3.16 µM): < 31.6 nM
IC50 (second compound 10 µM): < 31.6 nM
Structure (SMILES): COc1cc(C2c3cc4c(cc3C(OC3OC5COC(C)OC5C(O)C3O)C3COC(=O)C23)OCO4)cc(OC)c1O (stereo not drawn) + Cc1cnc(CNC(=O)c2c(=O)c3ccc(N4CCCN(C)CC4)nc3n3c2sc2ccccc23)cn1
viability, T/C [1]: 104%
viability, T/C [2]: 98.3%
viability, T/C [3]: 54.3%
viability, T/C [4]: 44.2%
viability, T/C [5]: 57.3%
viability, T/C [6]: 23.9%
viability, T/C [7]: 65.7%
viability, T/C [8]: 61%
viability, T/C [9]: 55.8%
viability, T/C [10]: 38.8%
viability, T/C [11]: 32.2%
viability, T/C [12]: 30.6%
viability, T/C [13]: 39.5%
viability, T/C [14]: 46.2%
viability, T/C [15]: 29.3%
viability, T/C [16]: 36.3%
viability, T/C [17]: 30.6%
viability, T/C [18]: 17.7%
viability, T/C [19]: 32.3%
viability, T/C [20]: 32.8%
viability, T/C [21]: 33.8%
viability, T/C [22]: 34.3%
viability, T/C [23]: 23.3%
viability, T/C [24]: 18.4%
viability, T/C [25]: 34.5%
viability, T/C [26]: 23.7%
viability, T/C [27]: 28.3%
viability, T/C [28]: 27%
viability, T/C [29]: 28.2%
viability, T/C [30]: 24.3%
viability, T/C [31]: 28.2%
viability, T/C [32]: 29.7%
viability, T/C [33]: 26.6%
viability, T/C [34]: 36.3%
viability, T/C [35]: 22.3%
viability, T/C [36]: 23.8%

IC50 (second compound 0.0316 µM): 5420 nM
IC50 (second compound 0.1 µM): 31.6 nM
IC50 (second compound 0.316 µM): < 31.6 nM
IC50 (second compound 1 µM): < 31.6 nM
IC50 (second compound 3.16 µM): < 31.6 nM
IC50 (second compound 10 µM): < 31.6 nM
Structure (SMILES): CC(C)n1c(=O)n(C)c2cnc3cc(F)c(-c4ccc(OCCCN5CCCCC5)nc4)cc3c21 + Cc1cnc(CNC(=O)c2c(=O)c3ccc(N4CCCN(C)CC4)nc3n3c2sc2ccccc23)cn1
viability, T/C [1]: 82%
viability, T/C [2]: 62%
viability, T/C [3]: 47.6%
viability, T/C [4]: 69.5%
viability, T/C [5]: 64%
viability, T/C [6]: 33.9%
viability, T/C [7]: 48.3%
viability, T/C [8]: 48.5%
viability, T/C [9]: 52.2%
viability, T/C [10]: 34%
viability, T/C [11]: 36.9%
viability, T/C [12]: 28.8%
viability, T/C [13]: 40.6%
viability, T/C [14]: 43.3%
viability, T/C [15]: 53.8%
viability, T/C [16]: 38.5%
viability, T/C [17]: 46.8%
viability, T/C [18]: 13.4%
viability, T/C [19]: 28.3%
viability, T/C [20]: 36.1%
viability, T/C [21]: 29.9%
viability, T/C [22]: 28.2%
viability, T/C [23]: 34.3%
viability, T/C [24]: 30.5%
viability, T/C [25]: 22.5%
viability, T/C [26]: 25.6%
viability, T/C [27]: 32.1%
viability, T/C [28]: 23.2%
viability, T/C [29]: 26.9%
viability, T/C [30]: 8.45%
viability, T/C [31]: 31.1%
viability, T/C [32]: 41.4%
viability, T/C [33]: 19.9%
viability, T/C [34]: 31.9%
viability, T/C [35]: 24.1%
viability, T/C [36]: 19.2%
